# Measured values as given in PubChem BioAssay (NCI).
#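 Following 48 hours of exposure in 96-well plates, responses at five concentrations were used to interpolate endpoints linearly. GI50: concentration for 50% inhibition of growth. Definition used: TGI = concentration required for complete inhibition of growth.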
# Tests used:
# Experiment in all cases: DTP human tumour cell line panel, 48 h
# SN12C renal = tested on: SN12C renal
# SR leukemia = tested on: SR leukemia
# T-47D breast = tested on: T-47D breast
# COLO 205 colon = tested on: COLO 205 colon
# CCRF-CEM leukemia = tested on: CCRF-CEM leukemia
# ACHN renal = tested on: ACHN renal
# CAKI-1 renal = tested on: CAKI-1 renal
# NCI-H460 lung = tested on: NCI-H460 lung
# NCI/ADR-RES ovarian = tested on: NCI/ADR-RES ovarian
# HOP-92 NSCLC = tested on: HOP-92 NSCLC
# A549 NSCLC = tested on: A549 NSCLC
# NCI-H226 lung = tested on: NCI-H226 lung
# HCT-15 colon = tested on: HCT-15 colon
# MOLT-4 leukemia = tested on: MOLT-4 leukemia
# SF-268 CNS = tested on: SF-268 CNS
# SK-OV-3 ovarian = tested on: SK-OV-3 ovarian
# BT-549 breast = tested on: BT-549 breast
# SF-295 CNS = tested on: SF-295 CNS
# IGROV1 ovarian = tested on: IGROV1 ovarian
# SK-MEL-5 melanoma = tested on: SK-MEL-5 melanoma
# OVCAR-5 ovarian = tested on: OVCAR-5 ovarian
# NCI-H522 lung = tested on: NCI-H522 lung
# MDA-MB-435 = tested on: MDA-MB-435
# K-562 leukemia = tested on: K-562 leukemia
# UACC-62 melanoma = tested on: UACC-62 melanoma
# NCI-H23 lung = tested on: NCI-H23 lung
# SF-539 CNS = tested on: SF-539 CNS
# HL-60(TB) leukemia = tested on: HL-60(TB) leukemia
# SNB-19 CNS = tested on: SNB-19 CNS
# DU-145 prostate = tested on: DU-145 prostate
# SNB-75 CNS = tested on: SNB-75 CNS
# M14 melanoma = tested on: M14 melanoma
# U251 CNS = tested on: U251 CNS
# PC-3 prostate = tested on: PC-3 prostate
# RPMI-8226 leukemia = tested on: RPMI-8226 leukemia
# HOP-62 NSCLC = tested on: HOP-62 NSCLC
# KM12 colon = tested on: KM12 colon
# HT29 colon = tested on: HT29 colon
# 786-0 renal = tested on: 786-0 renal
# SK-MEL-2 melanoma = tested on: SK-MEL-2 melanoma
# MDA-MB-231 breast = tested on: MDA-MB-231 breast
# MCF7 breast = tested on: MCF7 breast
# HCC-2998 colon = tested on: HCC-2998 colon
# EKVX NSCLC = tested on: EKVX NSCLC
# OVCAR-8 ovarian = tested on: OVCAR-8 ovarian
# SK-MEL-28 melanoma = tested on: SK-MEL-28 melanoma
# SW-620 colon = tested on: SW-620 colon
# TK-10 renal = tested on: TK-10 renal
# HCT-116 colon = tested on: HCT-116 colon
# OVCAR-4 ovarian = tested on: OVCAR-4 ovarian
# MALME-3M melanoma = tested on: MALME-3M melanoma
# OVCAR-3 ovarian = tested on: OVCAR-3 ovarian
# RXF 393 renal = tested on: RXF 393 renal
# LOX IMVI melanoma = tested on: LOX IMVI melanoma
# UACC-257 melanoma = tested on: UACC-257 melanoma
# UO-31 renal = tested on: UO-31 renal
# A498 renal = tested on: A498 renal
structure (smiles),measurement,setting,value
CCOC(=O)c1c2c(n(Cc3ccc(Cl)cc3Cl)c1C)-c1nc(Cc3ccccc3)[nH]c1C(=O)C2=O,GI50,SN12C renal,2220 nM
same,TGI,SN12C renal,4.75 µM
same,GI50,SR leukemia,1780 nM
same,TGI,SR leukemia,3.82 µM
same,GI50,T-47D breast,2650 nM
same,TGI,T-47D breast,33.3 µM
same,GI50,COLO 205 colon,2420 nM
same,TGI,COLO 205 colon,5.85 µM
same,GI50,CCRF-CEM leukemia,1810 nM
same,TGI,CCRF-CEM leukemia,4.45 µM
same,GI50,ACHN renal,1750 nM
same,TGI,ACHN renal,3.17 µM
same,GI50,CAKI-1 renal,2310 nM
same,TGI,CAKI-1 renal,4.01 µM
same,GI50,NCI-H460 lung,2270 nM
same,TGI,NCI-H460 lung,4.9 µM
same,GI50,NCI/ADR-RES ovarian,3.19 µM
same,TGI,NCI/ADR-RES ovarian,10.6 µM
same,GI50,HOP-92 NSCLC,1620 nM
same,TGI,HOP-92 NSCLC,3.06 µM
same,GI50,A549 NSCLC,3.84 µM
same,TGI,A549 NSCLC,> 100 µM
same,GI50,NCI-H226 lung,2190 nM
same,TGI,NCI-H226 lung,4.68 µM
same,GI50,HCT-15 colon,2150 nM
same,TGI,HCT-15 colon,4.64 µM
same,GI50,MOLT-4 leukemia,1940 nM
same,TGI,MOLT-4 leukemia,4.87 µM
same,GI50,SF-268 CNS,1940 nM
same,TGI,SF-268 CNS,4.28 µM
same,GI50,SK-OV-3 ovarian,5.02 µM
same,TGI,SK-OV-3 ovarian,19.3 µM
same,GI50,BT-549 breast,2070 nM
same,TGI,BT-549 breast,3.87 µM
same,GI50,SF-295 CNS,1990 nM
same,TGI,SF-295 CNS,4.59 µM
same,GI50,IGROV1 ovarian,2310 nM
same,TGI,IGROV1 ovarian,5.07 µM
same,GI50,SK-MEL-5 melanoma,1800 nM
same,TGI,SK-MEL-5 melanoma,3.27 µM
same,GI50,OVCAR-5 ovarian,2250 nM
same,TGI,OVCAR-5 ovarian,4.56 µM
same,GI50,NCI-H522 lung,2200 nM
same,TGI,NCI-H522 lung,4.68 µM
same,GI50,MDA-MB-435,1990 nM
same,TGI,MDA-MB-435,3.75 µM
same,GI50,K-562 leukemia,1970 nM
same,TGI,K-562 leukemia,5.25 µM
same,GI50,UACC-62 melanoma,1820 nM
same,TGI,UACC-62 melanoma,3.48 µM
same,GI50,NCI-H23 lung,2030 nM
same,TGI,NCI-H23 lung,4.29 µM
same,GI50,SF-539 CNS,2140 nM
same,TGI,SF-539 CNS,3.97 µM
same,GI50,HL-60(TB) leukemia,1570 nM
same,TGI,HL-60(TB) leukemia,3.71 µM
same,GI50,SNB-19 CNS,3510 nM
same,TGI,SNB-19 CNS,45.2 µM
same,GI50,DU-145 prostate,1780 nM
same,TGI,DU-145 prostate,3.3 µM
same,GI50,SNB-75 CNS,1880 nM
same,TGI,SNB-75 CNS,3.63 µM
same,GI50,M14 melanoma,2300 nM
same,TGI,M14 melanoma,5.05 µM
same,GI50,U251 CNS,2110 nM
same,TGI,U251 CNS,4.62 µM
same,GI50,PC-3 prostate,1920 nM
same,TGI,PC-3 prostate,4.9 µM
same,GI50,RPMI-8226 leukemia,2250 nM
same,TGI,RPMI-8226 leukemia,4.65 µM
same,GI50,HOP-62 NSCLC,2320 nM
same,TGI,HOP-62 NSCLC,5.48 µM
same,GI50,KM12 colon,1470 nM
same,TGI,KM12 colon,2890 nM
same,GI50,HT29 colon,2720 nM
same,TGI,HT29 colon,8.61 µM
same,GI50,786-0 renal,1820 nM
same,TGI,786-0 renal,3.47 µM
same,GI50,SK-MEL-2 melanoma,2830 nM
same,TGI,SK-MEL-2 melanoma,9.2 µM
same,GI50,MDA-MB-231 breast,1930 nM
same,TGI,MDA-MB-231 breast,3.56 µM
same,GI50,MCF7 breast,2550 nM
same,TGI,MCF7 breast,6.08 µM
same,GI50,HCC-2998 colon,1930 nM
same,TGI,HCC-2998 colon,3.78 µM
same,GI50,EKVX NSCLC,2240 nM
same,TGI,EKVX NSCLC,4.49 µM
same,GI50,OVCAR-8 ovarian,3.49 µM
same,TGI,OVCAR-8 ovarian,50.4 µM
same,GI50,SK-MEL-28 melanoma,1690 nM
same,TGI,SK-MEL-28 melanoma,3.3 µM
same,GI50,SW-620 colon,2110 nM
same,TGI,SW-620 colon,4.07 µM
same,GI50,TK-10 renal,2120 nM
same,TGI,TK-10 renal,3.65 µM
same,GI50,HCT-116 colon,1680 nM
same,TGI,HCT-116 colon,3.07 µM
same,GI50,OVCAR-4 ovarian,1870 nM
same,TGI,OVCAR-4 ovarian,4.8 µM
same,GI50,MALME-3M melanoma,2000 nM
same,TGI,MALME-3M melanoma,3.66 µM
same,GI50,OVCAR-3 ovarian,1800 nM
same,TGI,OVCAR-3 ovarian,3.6 µM
Cc1nnc([S-])o1.[Au+].c1ccc([PH+](c2ccccc2)c2ccccc2)cc1,GI50,SN12C renal,1670 nM
same,TGI,SN12C renal,3.07 µM
same,GI50,SR leukemia,1210 nM
same,TGI,SR leukemia,> 100 µM
same,GI50,T-47D breast,1870 nM
same,TGI,T-47D breast,4.93 µM
same,GI50,ACHN renal,1710 nM
same,TGI,ACHN renal,3.08 µM
same,GI50,CAKI-1 renal,1470 nM
same,TGI,CAKI-1 renal,2.8 µM
same,GI50,HOP-92 NSCLC,1640 nM
same,TGI,HOP-92 NSCLC,3.03 µM
same,GI50,RXF 393 renal,1240 nM
same,TGI,RXF 393 renal,2510 nM
same,GI50,HCT-15 colon,1490 nM
same,TGI,HCT-15 colon,3.08 µM
same,GI50,SF-268 CNS,1620 nM
same,TGI,SF-268 CNS,3.31 µM
same,GI50,SK-OV-3 ovarian,2.28 µM
same,TGI,SK-OV-3 ovarian,4.17 µM
same,GI50,BT-549 breast,1580 nM
same,TGI,BT-549 breast,2.95 µM
same,GI50,SF-295 CNS,1890 nM
same,TGI,SF-295 CNS,3.5 µM
same,GI50,IGROV1 ovarian,1470 nM
same,TGI,IGROV1 ovarian,2.82 µM
same,GI50,SK-MEL-5 melanoma,1550 nM
same,TGI,SK-MEL-5 melanoma,2.94 µM
same,GI50,OVCAR-5 ovarian,1820 nM
same,TGI,OVCAR-5 ovarian,3.27 µM
same,GI50,NCI-H522 lung,595 nM
same,TGI,NCI-H522 lung,2.03 µM
same,GI50,MDA-MB-435,1620 nM
same,TGI,MDA-MB-435,3.02 µM
same,GI50,K-562 leukemia,2380 nM
same,TGI,K-562 leukemia,> 100 µM
same,GI50,UACC-62 melanoma,1350 nM
same,TGI,UACC-62 melanoma,2.7 µM
same,GI50,SF-539 CNS,1630 nM
same,TGI,SF-539 CNS,2.99 µM
same,GI50,HL-60(TB) leukemia,2990 nM
same,TGI,HL-60(TB) leukemia,9.12 µM
same,GI50,SNB-19 CNS,1610 nM
same,TGI,SNB-19 CNS,2.98 µM
same,GI50,DU-145 prostate,1750 nM
same,TGI,DU-145 prostate,3.26 µM
same,GI50,SNB-75 CNS,1320 nM
same,TGI,SNB-75 CNS,2.6 µM
same,GI50,M14 melanoma,1790 nM
same,TGI,M14 melanoma,3.34 µM
same,GI50,U251 CNS,1500 nM
same,TGI,U251 CNS,2.86 µM
same,GI50,PC-3 prostate,1590 nM
same,TGI,PC-3 prostate,3.07 µM
same,GI50,HOP-62 NSCLC,1870 nM
same,TGI,HOP-62 NSCLC,3.53 µM
same,GI50,LOX IMVI melanoma,1630 nM
same,TGI,LOX IMVI melanoma,3 µM
same,GI50,786-0 renal,1640 nM
same,TGI,786-0 renal,3 µM
same,GI50,SK-MEL-2 melanoma,1720 nM
same,TGI,SK-MEL-2 melanoma,3.24 µM
same,GI50,MDA-MB-231 breast,1680 nM
same,TGI,MDA-MB-231 breast,3.11 µM
same,GI50,UACC-257 melanoma,1570 nM
same,TGI,UACC-257 melanoma,3.11 µM
same,GI50,HCC-2998 colon,1820 nM
same,TGI,HCC-2998 colon,3.27 µM
same,GI50,EKVX NSCLC,1810 nM
same,TGI,EKVX NSCLC,3.24 µM
same,GI50,SK-MEL-28 melanoma,1510 nM
same,TGI,SK-MEL-28 melanoma,2.86 µM
same,GI50,UO-31 renal,1660 nM
same,TGI,UO-31 renal,3.02 µM
same,GI50,TK-10 renal,1800 nM
same,TGI,TK-10 renal,3.21 µM
same,GI50,A498 renal,1570 nM
same,TGI,A498 renal,2930 nM
same,GI50,HCT-116 colon,1600 nM
same,TGI,HCT-116 colon,3.01 µM
same,GI50,OVCAR-4 ovarian,1590 nM
same,TGI,OVCAR-4 ovarian,2.95 µM
same,GI50,MALME-3M melanoma,1600 nM
same,TGI,MALME-3M melanoma,3.06 µM
same,GI50,OVCAR-3 ovarian,1610 nM
same,TGI,OVCAR-3 ovarian,2.98 µM
